Values joined by “and” are separate entries in the source; they are usually repeats but may differ in a detail not shown here. Equal values may be shown once. Read-outs that look alike come from different tables or passages of the source.
What was measured:
RSV minigenome [1] = assay type: cell-based, Respiratory syncytia virus (RSV)
Sindbis replicon = assay type: cell-based, Sindbis virus; details: for Sindbis Mixed Viral Replicon Culture % of Control (ave): Table 3
RSV minigenome [2] = assay type: cell-based, Respiratory syncytia virus (RSV); remark: listed apart in the source
HCV replicon = assay type: cell-based, hepatitis C virus
YFR replicon = assay type: cell-based, yellow fever virus; details: for YFR Mixed Viral Replicon Culture % of Control (ave): co-cultured HCV/Sindbis/YFR replicons

NC(=O)c1ncn([C@@H]2O[C@H](CO)[C@@H](O)[C@H]2O)n1 [Ribavirin, ribavirin]
RSV Single Viral Culture % of Control (ave) (RSV minigenome [1]; Ribavirin 0.5 μ/ml): 97.31 % of Control | RSV Single Viral Culture % of Control (ave) (RSV minigenome [1]; Ribavirin 1 μ/ml): 17.86 % of Control | RSV Single Viral Culture % of Control (ave) (RSV minigenome [1]; Ribavirin 10 μ/ml): 3.74 % of Control | RSV Single Viral Culture % of Control (ave) (RSV minigenome [1]; Ribavirin 100 μ/ml): 2.82 % of Control | effect on Sindbis replicon replication (Sindbis replicon): did inhibit | Sindbis Mixed Viral Replicon Culture % of Control (ave) (Sindbis replicon; Ribavirin 0.5 μg/ml): 40.54 % of Control | Sindbis Mixed Viral Replicon Culture % of Control (ave) (Sindbis replicon; Ribavirin 1 μg/ml): 62.98 % of Control | Sindbis Mixed Viral Replicon Culture % of Control (ave) (Sindbis replicon; Ribavirin 10 μg/ml): 35.04 % of Control | Sindbis Mixed Viral Replicon Culture % of Control (ave) (Sindbis replicon; Ribavirin 100 μg/ml): 18.11 % of Control | RSV Mixed Viral Culture % of Control (ave) (RSV minigenome [2]; Ribavirin 0.5 μ/ml): 96.16 % of Control | RSV Mixed Viral Culture % of Control (ave) (RSV minigenome [2]; Ribavirin 1 μ/ml): 44.14 % of Control | RSV Mixed Viral Culture % of Control (ave) (RSV minigenome [2]; Ribavirin 10 μ/ml): 42.42 % of Control | RSV Mixed Viral Culture % of Control (ave) (RSV minigenome [2]; Ribavirin 100 μ/ml): 13.90 % of Control | HCV Mixed Viral Replicon Culture % of Control (ave) (HCV replicon): 100.37 % of Control and 101.51 % of Control and 99.75 % of Control and 110.22 % of Control | effect on HCV replication (HCV replicon): no effect

α-interferon [IFNα]
RSV Single Viral Culture % of Control (ave) (RSV minigenome [1]; IFN-α 100 Units/ml): 84.30 % of Control | RSV Single Viral Culture % of Control (ave) (RSV minigenome [1]; IFN-α 1000 Units/ml): 47.29 % of Control | inhibition of YFR replicon (YFR replicon; 100 u/ml IFNα, mixed viral replicon culture): > 81% | YFR Mixed Viral Replicon Culture % of Control (ave) (YFR replicon; IFNα 1 Units/ml): 41.47 % of Control | YFR Mixed Viral Replicon Culture % of Control (ave) (YFR replicon; IFNα 10 Units/ml): 26.09 % of Control | YFR Mixed Viral Replicon Culture % of Control (ave) (YFR replicon; IFNα 100 Units/ml): 18.64 % of Control | inhibition of Sindbis replicon (Sindbis replicon): > 98% | RSV Mixed Viral Culture % of Control (ave) (RSV minigenome [2]; IFN-α 100 Units/ml): 84.30 % of Control | RSV Mixed Viral Culture % of Control (ave) (RSV minigenome [2]; IFN-α 1000 Units/ml): 77.80 % of Control | inhibition of HCV replicon (HCV replicon): > 91%

— patent US6750009B2 (priority 2002, dated 2004)
